ChEMBL document CHEMBL1201862, “PubChem BioAssay data set” (2004)
Calls of active or inactive are those of the source.

Experiments:
[1] = molecular target: T1, Glycogen synthase kinase-3 beta (Homo sapiens, UniProt P49841); assay: inhibition of human GSK3B activity – biochemical, microfluidics, dry powder samples, set 2, dose response (AID 623989); assay type: functional
[2] = molecular target: T2, Glycogen synthase kinase-3 alpha (Homo sapiens, UniProt P49840); assay: GSK3A enzyme blockers, homolog specificity check – biochemical, microfluidics, dry powder samples, set 2, selectivity assay for GSK3beta inhibitor project, dose response (AID 623978); assay type: functional
T2 sequence (P49840 whole entry): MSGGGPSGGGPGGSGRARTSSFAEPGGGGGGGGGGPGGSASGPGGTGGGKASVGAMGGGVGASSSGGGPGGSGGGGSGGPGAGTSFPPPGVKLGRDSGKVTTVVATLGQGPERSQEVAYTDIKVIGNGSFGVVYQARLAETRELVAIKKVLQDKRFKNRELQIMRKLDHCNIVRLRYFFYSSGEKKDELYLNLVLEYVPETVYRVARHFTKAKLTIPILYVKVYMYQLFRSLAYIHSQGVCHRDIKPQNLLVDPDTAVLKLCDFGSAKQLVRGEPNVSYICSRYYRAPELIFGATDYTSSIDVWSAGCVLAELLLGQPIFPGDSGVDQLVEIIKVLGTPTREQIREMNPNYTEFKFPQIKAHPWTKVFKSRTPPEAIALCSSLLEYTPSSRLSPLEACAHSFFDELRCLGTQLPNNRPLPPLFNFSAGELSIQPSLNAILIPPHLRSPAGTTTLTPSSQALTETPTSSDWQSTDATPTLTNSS

[3] = molecular target: FAD-linked sulfhydryl oxidase ALR (Homo sapiens, UniProt P55789); assay: ALR-catalysed DTT oxidation blockers – biochemical, H2O2 detection, luminescence, cherry-pick, dose response (AID 493248)
[4] = molecular target: Cyclin-dependent kinase 5/CDK5 activator 1 (Homo sapiens, UniProt Q00535); assay: inhibitors of human CDK5 activity – biochemical, microfluidic mobility shift, dry powder, set 2, selectivity assay for GSK3beta inhibitor project, dose response (AID 623979); assay type: functional
[5] = molecular target: Vascular endothelial growth factor receptor 1 (Homo sapiens, UniProt P17948); assay type: functional;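 note: measured within a kinome-wide profiling panel, FLT1 as the panel member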
[6] = molecular target: Mitogen-activated protein kinase 14 (Homo sapiens, UniProt Q16539); assay type: functional;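 note: part of a kinome-wide panel, MAPK14 entry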
[7] = molecular target: Platelet-derived growth factor receptor alpha (Homo sapiens, UniProt P16234); assay: Navigating the Kinome. Panel member name: PDGFRA; assay type: functional
[8] = molecular target: 5'-AMP-activated protein kinase catalytic subunit alpha-1 (Homo sapiens, UniProt Q13131); assay type: functional
[9] = molecular target: Dual specificity protein kinase CLK4 (Homo sapiens, UniProt Q9HAZ1); assay type: functional
[10] = molecular target: Tyrosine-protein kinase JAK3 (Homo sapiens, UniProt P52333); assay type: functional
[11] = molecular target: G protein-coupled receptor kinase 5 (Homo sapiens, UniProt P34947); assay: Navigating the Kinome. Panel member name: GPRK5; assay type: functional
[12] = molecular target: Leucine-rich repeat serine/threonine-protein kinase 2 (Homo sapiens, UniProt Q5S007); assay type: functional;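 note: value from a broad kinome-wide panel profiling study in which LRRK2 was one of the kinases tested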
[13] = molecular target: Activin receptor type-1 (Homo sapiens, UniProt Q04771); assay: Navigating the Kinome. Panel member name: ACVR1; assay type: functional
[14] = molecular target: Rho-associated protein kinase 1 (Homo sapiens, UniProt Q13464); assay type: functional;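 note: measured within a broad kinome-wide panel profiling many kinases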
[15] = molecular target: Tyrosine-protein kinase JAK2 (Homo sapiens, UniProt O60674); assay type: functional;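 note: JAK2 tested as one member of a kinase panel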
[16] = molecular target: cAMP-dependent protein kinase catalytic subunit PRKX (Homo sapiens, UniProt P51817); assay type: functional
[17] = molecular target: Tyrosine-protein kinase ABL1 (Homo sapiens, UniProt P00519); assay type: functional
[18] = molecular target: Leukocyte tyrosine kinase receptor (Homo sapiens, UniProt P29376); assay: Navigating the Kinome. Panel member name: LTK; assay type: functional
[19] = molecular target: Cyclin-dependent kinase 7 (Homo sapiens, UniProt P50613); assay type: functional;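 note: value comes from a kinome-wide kinase profiling panel in which CDK7 is one member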
[20] = molecular target: Cyclin-dependent kinase 9 (Homo sapiens, UniProt P50750); assay type: functional;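 note: value from the CDK9 entry of a kinome-spanning kinase panel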
Cyclin-dependent kinase 9, sequence (P50750 whole entry): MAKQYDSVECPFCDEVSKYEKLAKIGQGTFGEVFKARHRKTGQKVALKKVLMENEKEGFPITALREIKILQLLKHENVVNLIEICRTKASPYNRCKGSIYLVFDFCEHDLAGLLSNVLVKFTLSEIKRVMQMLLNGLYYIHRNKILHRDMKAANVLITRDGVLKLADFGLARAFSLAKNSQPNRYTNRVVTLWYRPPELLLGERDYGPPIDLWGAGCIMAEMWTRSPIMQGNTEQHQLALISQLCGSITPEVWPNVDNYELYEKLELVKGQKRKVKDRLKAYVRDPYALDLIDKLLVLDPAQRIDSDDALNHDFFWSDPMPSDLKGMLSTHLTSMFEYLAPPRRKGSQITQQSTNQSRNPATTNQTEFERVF

[21] = molecular target: Mitogen-activated protein kinase 8 (Homo sapiens, UniProt P45983); assay type: functional;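 note: value comes from one member of a kinome-wide kinase profiling panel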
[22] = molecular target: Serine/threonine-protein kinase PAK 4 (Homo sapiens, UniProt O96013); assay type: functional;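 note: value obtained within a kinome profiling panel in which PAK4 was one of the panel members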
[23] = molecular target: Tyrosine-protein kinase Fyn (Homo sapiens, UniProt P06241); assay type: functional
[24] = molecular target: Inhibitor of nuclear factor kappa-B kinase subunit epsilon (Homo sapiens, UniProt Q14164); assay: Navigating the Kinome. Panel member name: IKBKE; assay type: functional
[25] = molecular target: Mitogen-activated protein kinase kinase kinase kinase 2 (Homo sapiens, UniProt Q12851); assay type: functional;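 note: measured as one member of a kinome-wide kinase panel, with MAP4K2 as the panel entry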
[26] = molecular target: Proto-oncogene tyrosine-protein kinase receptor Ret (Homo sapiens, UniProt P07949); assay type: functional;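 note: measured within a kinome-wide profiling panel, RET as the panel member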
[27] = molecular target: Aurora kinase A (Homo sapiens, UniProt O14965); assay type: functional;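 note: value from the Navigating the Kinome kinase panel profiling, panel entry STK6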
[28] = molecular target: Vascular endothelial growth factor receptor 2 (Homo sapiens, UniProt P35968); assay type: functional
[29] = molecular target: Tyrosine-protein kinase receptor TYRO3 (Homo sapiens, UniProt Q06418); assay type: functional;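 note: TYRO3 value obtained as one member of a kinome-wide profiling panel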
[30] = molecular target: Dual specificity tyrosine-phosphorylation-regulated kinase 1A (Homo sapiens, UniProt Q13627); assay type: functional;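 note: measured against DYRK1A as one member of a broad kinome profiling panel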
[31] = molecular target: Death-associated protein kinase 3 (Homo sapiens, UniProt O43293); assay type: functional;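 note: measured as one member of a kinome-wide profiling panel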
[32] = molecular target: Calcium/calmodulin-dependent protein kinase type II subunit alpha (Homo sapiens, UniProt Q9UQM7); assay: Navigating the Kinome. Panel member name: CAMK2A; assay type: functional
Calcium/calmodulin-dependent protein kinase type II subunit alpha, sequence (Q9UQM7 whole entry): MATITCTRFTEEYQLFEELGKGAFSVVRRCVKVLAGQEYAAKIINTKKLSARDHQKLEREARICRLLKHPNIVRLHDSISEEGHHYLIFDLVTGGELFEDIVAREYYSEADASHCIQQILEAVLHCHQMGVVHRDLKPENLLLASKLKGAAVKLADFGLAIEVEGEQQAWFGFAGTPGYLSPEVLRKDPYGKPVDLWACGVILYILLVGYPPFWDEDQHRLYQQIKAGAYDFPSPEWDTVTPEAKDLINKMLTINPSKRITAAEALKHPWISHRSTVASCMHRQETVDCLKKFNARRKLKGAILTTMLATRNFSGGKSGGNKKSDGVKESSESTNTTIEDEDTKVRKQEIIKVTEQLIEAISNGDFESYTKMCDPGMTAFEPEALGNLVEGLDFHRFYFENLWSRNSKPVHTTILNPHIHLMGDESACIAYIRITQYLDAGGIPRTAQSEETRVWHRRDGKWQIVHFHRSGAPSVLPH

[33] = molecular target: Macrophage colony-stimulating factor 1 receptor (Homo sapiens, UniProt P07333); assay type: functional;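 note: value comes from the Navigating the Kinome screening panel, CSF1R member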
[34] = molecular target: Activated CDC42 kinase 1 (Homo sapiens, UniProt Q07912); assay: Navigating the Kinome. Panel member name: ACK1; assay type: functional
Activated CDC42 kinase 1, sequence (Q07912 whole entry): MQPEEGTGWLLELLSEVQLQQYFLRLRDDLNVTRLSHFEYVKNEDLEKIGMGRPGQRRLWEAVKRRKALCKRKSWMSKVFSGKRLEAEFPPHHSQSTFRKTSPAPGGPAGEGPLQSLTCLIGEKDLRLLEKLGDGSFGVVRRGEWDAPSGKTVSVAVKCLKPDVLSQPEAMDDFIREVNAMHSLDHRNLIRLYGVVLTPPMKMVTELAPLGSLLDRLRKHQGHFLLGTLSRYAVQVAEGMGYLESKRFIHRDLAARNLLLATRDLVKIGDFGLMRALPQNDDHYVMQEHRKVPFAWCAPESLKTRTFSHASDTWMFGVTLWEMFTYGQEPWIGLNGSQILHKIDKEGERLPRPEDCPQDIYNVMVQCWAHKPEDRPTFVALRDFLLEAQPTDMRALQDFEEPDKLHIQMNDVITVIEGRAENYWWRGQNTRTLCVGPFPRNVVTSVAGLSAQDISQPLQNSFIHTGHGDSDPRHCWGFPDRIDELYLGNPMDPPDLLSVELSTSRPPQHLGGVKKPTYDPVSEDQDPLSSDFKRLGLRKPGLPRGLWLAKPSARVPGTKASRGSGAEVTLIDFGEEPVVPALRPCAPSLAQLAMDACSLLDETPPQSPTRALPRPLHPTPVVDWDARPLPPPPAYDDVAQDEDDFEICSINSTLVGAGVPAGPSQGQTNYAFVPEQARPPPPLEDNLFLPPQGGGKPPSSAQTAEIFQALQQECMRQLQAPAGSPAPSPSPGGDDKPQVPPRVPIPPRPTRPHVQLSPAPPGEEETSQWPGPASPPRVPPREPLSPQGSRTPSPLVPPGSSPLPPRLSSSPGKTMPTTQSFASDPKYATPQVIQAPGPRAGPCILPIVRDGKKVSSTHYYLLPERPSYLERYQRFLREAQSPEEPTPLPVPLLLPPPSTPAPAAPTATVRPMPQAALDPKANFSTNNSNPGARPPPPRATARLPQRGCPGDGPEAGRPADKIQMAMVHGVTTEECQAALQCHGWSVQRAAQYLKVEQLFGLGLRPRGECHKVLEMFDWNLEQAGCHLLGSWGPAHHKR

[35] = molecular target: Cyclin-dependent kinase 8 (Homo sapiens, UniProt P49336); assay: Navigating the Kinome. Panel member name: CDK8; assay type: functional
[36] = molecular target: Receptor-type tyrosine-protein kinase FLT3 (Homo sapiens, UniProt P36888); assay type: functional;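 note: FLT3 was tested as one member of a kinome-wide kinase panel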
[37] = molecular target: Mitogen-activated protein kinase kinase kinase kinase 4 (Homo sapiens, UniProt O95819); assay type: functional
Mitogen-activated protein kinase kinase kinase kinase 4, sequence (O95819 whole entry): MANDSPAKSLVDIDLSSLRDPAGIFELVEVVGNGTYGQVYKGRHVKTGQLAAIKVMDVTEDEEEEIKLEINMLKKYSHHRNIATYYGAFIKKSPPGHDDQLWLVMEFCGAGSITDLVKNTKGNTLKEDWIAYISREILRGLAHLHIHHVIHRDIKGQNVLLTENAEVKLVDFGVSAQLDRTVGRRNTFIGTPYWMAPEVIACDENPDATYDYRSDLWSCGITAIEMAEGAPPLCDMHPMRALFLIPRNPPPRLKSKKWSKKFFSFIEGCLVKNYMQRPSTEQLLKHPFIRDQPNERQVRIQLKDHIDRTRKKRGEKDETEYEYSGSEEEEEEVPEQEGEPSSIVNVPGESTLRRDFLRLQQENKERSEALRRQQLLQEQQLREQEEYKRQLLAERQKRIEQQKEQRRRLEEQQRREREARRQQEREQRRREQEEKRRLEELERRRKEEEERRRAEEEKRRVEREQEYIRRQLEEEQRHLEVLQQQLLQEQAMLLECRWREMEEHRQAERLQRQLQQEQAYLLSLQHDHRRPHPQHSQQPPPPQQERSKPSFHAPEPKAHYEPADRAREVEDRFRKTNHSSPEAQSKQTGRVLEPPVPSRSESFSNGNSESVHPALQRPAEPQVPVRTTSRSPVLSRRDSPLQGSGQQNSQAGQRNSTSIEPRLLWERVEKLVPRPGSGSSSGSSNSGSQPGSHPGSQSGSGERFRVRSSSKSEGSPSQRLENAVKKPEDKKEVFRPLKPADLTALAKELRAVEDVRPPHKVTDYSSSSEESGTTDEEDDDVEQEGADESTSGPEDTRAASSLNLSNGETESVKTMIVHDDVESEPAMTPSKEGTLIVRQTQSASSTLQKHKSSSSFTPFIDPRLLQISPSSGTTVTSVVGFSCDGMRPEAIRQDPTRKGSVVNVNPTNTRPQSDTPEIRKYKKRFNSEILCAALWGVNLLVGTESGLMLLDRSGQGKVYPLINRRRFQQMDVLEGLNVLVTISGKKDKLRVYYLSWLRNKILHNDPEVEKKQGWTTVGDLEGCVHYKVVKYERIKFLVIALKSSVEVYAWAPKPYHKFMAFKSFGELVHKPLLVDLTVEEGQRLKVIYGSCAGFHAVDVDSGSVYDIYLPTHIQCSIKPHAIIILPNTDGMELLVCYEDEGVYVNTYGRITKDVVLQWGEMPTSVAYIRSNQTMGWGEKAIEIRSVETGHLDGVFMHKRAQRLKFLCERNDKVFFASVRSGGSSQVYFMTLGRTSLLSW

[38] = molecular target: T1, Glycogen synthase kinase-3 beta; assay type: functional
[39] = molecular target: Serine/threonine-protein kinase TBK1 (Homo sapiens, UniProt Q9UHD2); assay: Navigating the Kinome. Panel member name: TBK1; assay type: functional
[40] = molecular target: Macrophage-stimulating protein receptor (Homo sapiens, UniProt Q04912); assay: Navigating the Kinome. Panel member name: MST1R; assay type: functional
[41] = molecular target: Dual specificity tyrosine-phosphorylation-regulated kinase 1B (Homo sapiens, UniProt Q9Y463); assay: Navigating the Kinome. Panel member name: DYRK1B; assay type: functional
[42] = molecular target: Serine/threonine-protein kinase TAO1 (Homo sapiens, UniProt Q7L7X3); assay type: functional
[43] = molecular target: Insulin-like growth factor 1 receptor (Homo sapiens, UniProt P08069); assay: Navigating the Kinome. Panel member name: IGF1R; assay type: functional
[44] = molecular target: Tyrosine-protein kinase Lck (Homo sapiens, UniProt P06239); assay type: functional;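 note: lck was assayed as one member of a kinase panel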
[45] = molecular target: Protein kinase C theta type (Homo sapiens, UniProt Q04759); assay: Navigating the Kinome. Panel member name: PRKCQ; assay type: functional
[46] = molecular target: cAMP-dependent protein kinase catalytic subunit alpha (Homo sapiens, UniProt P17612); assay type: functional
[47] = molecular target: Dual specificity mitogen-activated protein kinase kinase 1 (Homo sapiens, UniProt Q02750); assay: Navigating the Kinome. Panel member name: MAP2K1; assay type: functional
[48] = molecular target: Serine/threonine-protein kinase N2 (Homo sapiens, UniProt Q16513); assay type: functional
[49] = molecular target: Cyclin-dependent kinase 5 (Homo sapiens, UniProt Q00535); assay type: functional;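 note: CDK5 measured as one member of a kinase profiling panel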
[50] = molecular target: ALK tyrosine kinase receptor (Homo sapiens, UniProt Q9UM73); assay type: functional;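 note: ALK tested as one member of a kinase panel screen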
[51] = molecular target: Serine/threonine-protein kinase D3 (Homo sapiens, UniProt O94806); assay type: functional;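 note: determined within a kinase panel screen, with PRKCN as the panel member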
[52] = molecular target: Dual specificity protein kinase CLK2 (Homo sapiens, UniProt P49760); assay type: functional
[53] = molecular target: Mitogen-activated protein kinase 9 (Homo sapiens, UniProt P45984); assay type: functional;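 note: value from a kinome panel profiling assay, MAPK9 panel entry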
[54] = molecular target: Fibroblast growth factor receptor 1 (Homo sapiens, UniProt P11362); assay type: functional
[55] = molecular target: Serine/threonine-protein kinase pim-1 (Homo sapiens, UniProt P11309); assay type: functional
[56] = molecular target: BDNF/NT-3 growth factors receptor (Homo sapiens, UniProt Q16620); assay type: functional;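 note: NTRK2 measured as one member of a broad kinome-wide kinase profiling panel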
BDNF/NT-3 growth factors receptor, sequence (Q16620 whole entry): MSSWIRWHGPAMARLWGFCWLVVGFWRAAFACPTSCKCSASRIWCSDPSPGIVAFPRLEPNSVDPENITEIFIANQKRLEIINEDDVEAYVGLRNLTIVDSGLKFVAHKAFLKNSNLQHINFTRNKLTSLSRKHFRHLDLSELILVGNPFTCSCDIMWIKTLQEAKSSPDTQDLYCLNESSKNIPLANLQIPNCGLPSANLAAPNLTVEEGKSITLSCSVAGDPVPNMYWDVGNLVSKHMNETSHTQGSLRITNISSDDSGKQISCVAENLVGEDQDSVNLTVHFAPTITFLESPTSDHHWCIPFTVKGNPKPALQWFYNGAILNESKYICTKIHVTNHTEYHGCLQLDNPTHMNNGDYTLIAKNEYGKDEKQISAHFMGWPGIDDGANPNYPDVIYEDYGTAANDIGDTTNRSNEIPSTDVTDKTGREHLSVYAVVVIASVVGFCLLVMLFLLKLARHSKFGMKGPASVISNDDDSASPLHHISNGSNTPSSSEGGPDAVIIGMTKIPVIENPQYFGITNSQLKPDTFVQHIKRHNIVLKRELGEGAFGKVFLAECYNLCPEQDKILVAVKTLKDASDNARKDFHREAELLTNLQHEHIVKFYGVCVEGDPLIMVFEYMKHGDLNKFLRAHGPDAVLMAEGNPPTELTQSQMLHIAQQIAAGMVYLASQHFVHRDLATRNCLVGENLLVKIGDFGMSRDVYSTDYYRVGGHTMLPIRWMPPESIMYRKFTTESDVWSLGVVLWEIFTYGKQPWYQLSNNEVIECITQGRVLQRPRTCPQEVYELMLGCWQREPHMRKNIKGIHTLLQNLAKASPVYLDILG

[57] = molecular target: Ribosomal protein S6 kinase alpha-3 (Homo sapiens, UniProt P51812); assay type: functional;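 note: measured within a kinome-wide profiling panel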
[58] = molecular target: Dual specificity mitogen-activated protein kinase kinase 2 (Homo sapiens, UniProt P36507); assay: Navigating the Kinome. Panel member name: MAP2K2; assay type: functional
[59] = molecular target: T2, Glycogen synthase kinase-3 alpha; assay type: functional
[60] = molecular target: Tyrosine-protein kinase BTK (Homo sapiens, UniProt Q06187); assay type: functional

T1 sequence (P49841 whole entry): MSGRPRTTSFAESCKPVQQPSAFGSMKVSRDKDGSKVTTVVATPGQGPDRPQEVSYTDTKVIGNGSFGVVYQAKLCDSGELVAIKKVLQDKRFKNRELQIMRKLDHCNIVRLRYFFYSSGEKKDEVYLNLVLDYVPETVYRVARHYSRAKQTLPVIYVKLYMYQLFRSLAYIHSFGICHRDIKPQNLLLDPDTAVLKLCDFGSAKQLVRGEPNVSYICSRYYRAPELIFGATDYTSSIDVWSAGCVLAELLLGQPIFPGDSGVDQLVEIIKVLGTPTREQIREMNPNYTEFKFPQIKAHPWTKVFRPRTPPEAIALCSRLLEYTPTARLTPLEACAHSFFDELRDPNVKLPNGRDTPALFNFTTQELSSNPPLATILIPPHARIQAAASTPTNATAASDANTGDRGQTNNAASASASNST

COc1ccc(S(=O)(=O)Nc2c(C(=O)O)[nH]c3ccc(OC)cc23)cc1
AC50 [1]: 1.46 µM (active) | AC50 [2]: 5.47 µM (active) | AC50 [3]: 2.51 µM (active) | AC50 [4]: 3.7 µM (active)

CC1CCN(C(=O)CC#N)CC1c1ncc2cnc3[nH]ccc3n12 (stereo not given)
Ki [5]: > 3.98 µM (inactive) | Ki [6]: > 3.98 µM (inactive) | Ki [7]: > 2.51 µM (inactive) | Ki [8]: > 3.16 µM (inactive) | Ki [9]: > 2.51 µM (inactive) | Ki [10]: 0.00316 µM (active) | Ki [11]: > 3.98 µM (inactive) | Ki [12]: 0.316 µM (active) | Ki [13]: > 3.98 µM (inactive) | Ki [14]: 0.0251 µM (active) | Ki [15]: 0.000794 µM (active) | Ki [16]: 0.316 µM (active) | Ki [17]: > 3.98 µM (inactive) | Ki [18]: 1 µM (active) | Ki [19]: > 3.98 µM (inactive) | Ki [20]: > 1.58 µM (inactive) | Ki [21]: > 2.51 µM (inactive) | Ki [22]: > 5.01 µM (inactive) | Ki [23]: > 6.31 µM (inactive) | Ki [24]: > 3.16 µM (inactive) | Ki [25]: > 2.51 µM (inactive) | Ki [26]: 2.51 µM (active) | Ki [27]: > 1.58 µM (inactive) | Ki [28]: 1.26 µM (active) | Ki [29]: > 3.16 µM (inactive) | Ki [30]: > 2 µM (inactive) | Ki [31]: > 5.01 µM (inactive) | Ki [32]: > 7.94 µM (inactive) | Ki [33]: > 2.51 µM (inactive) | Ki [34]: > 3.16 µM (inactive) | Ki [35]: > 3.16 µM (inactive) | Ki [36]: > 3.16 µM (inactive) | Ki [37]: > 5.01 µM (inactive) | Ki [38]: > 3.98 µM (inactive) | Ki [39]: > 3.16 µM (inactive) | Ki [40]: > 2.51 µM (inactive) | Ki [41]: > 2.51 µM (inactive) | Ki [42]: > 6.31 µM (inactive) | Ki [43]: > 2.51 µM (inactive) | Ki [44]: 2.51 µM (active) | Ki [45]: > 1.26 µM (inactive) | Ki [46]: 0.501 µM (active) | Ki [47]: > 3.16 µM (inactive) | Ki [48]: 0.316 µM (active) | Ki [49]: > 3.16 µM (inactive) | Ki [50]: > 6.31 µM (inactive) | Ki [51]: > 3.98 µM (inactive) | Ki [52]: > 3.98 µM (inactive) | Ki [53]: > 3.98 µM (inactive) | Ki [54]: > 3.98 µM (inactive) | Ki [55]: > 6.31 µM (inactive) | Ki [56]: > 3.98 µM (inactive) | Ki [57]: > 3.98 µM (inactive) | Ki [58]: > 3.98 µM (inactive) | Ki [59]: 2.51 µM (active) | Ki [60]: > 6.31 µM (inactive)
